Data on seven compounds can be found in ChEMBL document CHEMBL4052831, “The Discovery of N-(1-Methyl-5-(trifluoromethyl)-1H-pyrazol-3-yl)-5-((6- ((methylamino)methyl)pyrimidin-4-yl)oxy)-1H-indole-1-carboxamide (Acrizanib), a VEGFR-2 Inhibitor Specifically Designed for Topical Ocular Delivery, as a Therapy for Neovascular Age-Related Macular Degeneration” (J Med Chem, 2018).

Data set [1] concerns Mus musculus. The experiment in a line: Antiangiogenic activity in C57BL/6 mouse laser-induced choroidal neovascularization model assessed as inhibition of neovascularization administered 1% suspension using 3.5 uL topical drop to both eyes every 3 hrs for 9 hrs by microscopic analysis.
Data set [2] relates to Rattus norvegicus. The experiment in a line: Antiangiogenic activity in Brown Norway rat laser-induced choroidal neovascularization model assessed as inhibition of neovascularization administered 1% suspension using 4 uL topical drop to both eyes every 3 hrs for 9 hrs by microscopic analysis.
Data set [3] deals with Vascular endothelial growth factor receptor 2 (Homo sapiens, UniProt P35968).
Vascular endothelial growth factor receptor 2, sequence (P35968 whole entry): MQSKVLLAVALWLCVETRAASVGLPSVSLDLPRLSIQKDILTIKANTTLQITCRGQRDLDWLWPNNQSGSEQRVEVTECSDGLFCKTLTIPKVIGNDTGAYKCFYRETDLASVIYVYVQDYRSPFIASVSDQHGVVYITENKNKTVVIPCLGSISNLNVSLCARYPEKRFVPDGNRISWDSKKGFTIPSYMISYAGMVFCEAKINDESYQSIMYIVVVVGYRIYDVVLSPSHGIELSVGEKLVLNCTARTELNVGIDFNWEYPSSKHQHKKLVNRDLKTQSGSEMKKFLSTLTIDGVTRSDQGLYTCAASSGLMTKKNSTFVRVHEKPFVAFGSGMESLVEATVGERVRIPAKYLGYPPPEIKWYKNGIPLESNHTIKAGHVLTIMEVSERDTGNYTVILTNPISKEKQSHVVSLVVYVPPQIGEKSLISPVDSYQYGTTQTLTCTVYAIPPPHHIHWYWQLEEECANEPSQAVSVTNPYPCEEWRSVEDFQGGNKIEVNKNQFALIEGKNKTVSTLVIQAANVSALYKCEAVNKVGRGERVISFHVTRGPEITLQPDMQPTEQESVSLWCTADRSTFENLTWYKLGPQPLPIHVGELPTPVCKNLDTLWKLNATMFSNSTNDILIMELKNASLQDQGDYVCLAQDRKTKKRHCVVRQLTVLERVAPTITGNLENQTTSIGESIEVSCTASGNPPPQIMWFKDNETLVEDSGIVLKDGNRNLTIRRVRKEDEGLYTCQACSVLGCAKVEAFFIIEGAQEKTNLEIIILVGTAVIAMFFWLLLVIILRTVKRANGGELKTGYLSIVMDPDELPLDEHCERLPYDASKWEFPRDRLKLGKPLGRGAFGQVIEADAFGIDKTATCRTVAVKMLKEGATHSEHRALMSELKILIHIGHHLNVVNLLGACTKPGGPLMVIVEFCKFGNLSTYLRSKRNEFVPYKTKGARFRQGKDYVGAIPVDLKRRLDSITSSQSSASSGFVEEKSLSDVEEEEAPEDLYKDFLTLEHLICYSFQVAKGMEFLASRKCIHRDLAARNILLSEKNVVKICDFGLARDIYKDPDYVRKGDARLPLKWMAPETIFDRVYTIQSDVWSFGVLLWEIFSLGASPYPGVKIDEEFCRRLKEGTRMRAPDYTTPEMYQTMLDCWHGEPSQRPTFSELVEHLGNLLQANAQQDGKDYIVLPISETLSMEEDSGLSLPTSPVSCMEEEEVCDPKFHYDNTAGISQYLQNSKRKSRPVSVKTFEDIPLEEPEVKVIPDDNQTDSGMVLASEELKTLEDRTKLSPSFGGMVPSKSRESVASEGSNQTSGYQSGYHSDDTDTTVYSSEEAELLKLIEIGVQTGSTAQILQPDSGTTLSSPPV
Description: Inhibition of KDR (unknown origin) expressed in mouse Ba/F3 cells
Data set [4] concerns the target Mast/stem cell growth factor receptor Kit (Homo sapiens, UniProt P10721). The experiment in a line: Inhibition of human KIT.
The nature of data set [5]: Cmax in retina of Brown Norway rat administered 0.3% suspension using 4 uL topical drop to both eyes every 3 hrs for 9 hrs over 10 days and single drop to each eye on day 11 by LC-MS/MS analysis. In kind it is ADME. The settings on record: topical or ocular, 4 uL of 0.3% suspension per eye.
Data set [6] is described as follows: Cmax in posterior eye cup of Brown Norway rat administered 0.3% suspension using 4 uL topical drop to both eyes as single dose by LC-MS/MS analysis. In kind it is ADME. The settings on record: topical or ocular, 4 uL of 0.3% suspension per eye.
Data set [7] is described as follows: Cmax in plasma of Brown Norway rat administered 0.3% suspension using 4 uL topical drop to both eyes every 3 hrs for 9 hrs over 10 days and single drop to each eye on day 11 by LC-MS/MS analysis. In kind it is ADME. The conditions noted are these: topical or ocular, 4 uL of 0.3% suspension per eye.
Data set [8] has as its target Platelet-derived growth factor receptor alpha (Homo sapiens, UniProt P16234). The experiment in a line: Inhibition of human PDGFRalpha.
Data set [9] addresses Tyrosine-protein kinase Lyn (Homo sapiens, UniProt P07948). The experiment in a line: Inhibition of human LYN.
Data set [10] is described as follows: AUC (0 to last) in retina of Brown Norway rat administered 0.3% suspension using 4 uL topical drop to both eyes every 3 hrs for 9 hrs over 10 days and single drop to each eye on day 11 by LC-MS/MS analysis. Type of data set: ADME. The conditions noted are these: topical or ocular, 4 uL of 0.3% suspension per eye.
Data set [11] is described as follows: Plasma concentration in cynomolgus monkey administered 0.5% suspension using 30 uL topical drop to both eyes as single dose measured over 24 hrs by LC-MS/MS analysis. Type of data set: ADME, cell-free, Macaca fascicularis. The conditions noted are these: topical or ocular, 30 uL of 0.5% suspension per eye.
Data set [12] is described as follows: AUC (0 to last) in cynomolgus monkey plasma administered 0.5% suspension using 30 uL topical drop to both eyes every 3 hrs for 9 hrs over 5 days and single drop to each eye on day 6 by LC-MS/MS analysis. Type of data set: ADME, Macaca fascicularis. The conditions noted are these: topical or ocular, 30 uL of 0.5% suspension per eye.
A short description of data set [13]: Tmax in cynomolgus monkey plasma administered 0.5% suspension using 30 uL topical drop to both eyes every 3 hrs for 9 hrs over 5 days and single drop to each eye on day 6 by LC-MS/MS analysis. In kind it is ADME, Macaca fascicularis. The conditions noted are these: topical or ocular, 30 uL of 0.5% suspension per eye.
Data set [14] in a line: Tmax in cynomolgus monkey plasma administered 0.5% suspension using 30 uL topical drop to both eyes as single dose by LC-MS/MS analysis. In kind it is ADME, Macaca fascicularis. The conditions noted are these: topical or ocular, 30 uL of 0.5% suspension per eye.
Data set [15] can be described thus: AUC (0 to last) in posterior eye cup of Brown Norway rat administered 0.3% suspension using 4 uL topical drop to both eyes as single dose by LC-MS/MS analysis. Type of data set: ADME. The settings on record: topical or ocular, 4 uL of 0.3% suspension per eye.
Data set [16] is described as follows: Cmax in plasma of Brown Norway rat administered 0.3% suspension using 4 uL topical drop to both eyes as single dose by LC-MS/MS analysis. Also noted: dose 4 uL, route ophthalmic. In kind it is ADME. The settings on record: topical or ocular, 4 uL of 0.3% suspension per eye.
Data set [17] has as its system Plasma. The experiment in a line: Plasma concentration in cynomolgus monkey administered 0.5% suspension using 30 uL topical drop to both eyes every 3 hrs for 9 hrs over 5 days and single drop to each eye on day 6 by LC-MS/MS analysis. Type of data set: ADME, cell-free, Macaca fascicularis. The conditions noted are these: topical_or_ocular.
The nature of data set [18]: AUC (0 to last) in plasma of Brown Norway rat administered 0.3% suspension using 4 uL topical drop to both eyes as single dose by LC-MS/MS analysis. The conditions noted are these: topical or ocular, 4 uL of 0.3% suspension per eye. Also noted: dose 4 uL, time 0 - last, route ophthalmic. Type of data set: ADME.
The nature of data set [19]: AUC (0 to last) in cynomolgus monkey plasma administered 0.5% suspension using 30 uL topical drop to both eyes as single dose by LC-MS/MS analysis. Also noted: dose 30 uL, route ophthalmic, time 0 - last. Type of data set: ADME, Macaca fascicularis. The settings on record: topical or ocular, 30 uL of 0.5% suspension per eye.
A short description of data set [20]: Cmax in posterior eye cup of Brown Norway rat administered 0.3% suspension using 4 uL topical drop to both eyes every 3 hrs for 9 hrs over 10 days and single drop to each eye on day 11 by LC-MS/MS analysis. In kind it is ADME. The settings on record: topical or ocular, 4 uL of 0.3% suspension per eye.
Data set [21] in a line: AUC (0 to last) in posterior eye cup of Brown Norway rat administered 0.3% suspension using 4 uL topical drop to both eyes every 3 hrs for 9 hrs over 10 days and single drop to each eye on day 11 by LC-MS/MS analysis. In kind it is ADME. The conditions noted are these: topical or ocular, 4 uL of 0.3% suspension per eye.
Data set [22] can be described thus: Cmax in cynomolgus monkey plasma administered 0.5% suspension using 30 uL topical drop to both eyes as single dose by LC-MS/MS analysis. The conditions noted are these: topical or ocular, 30 uL of 0.5% suspension per eye. Type of data set: ADME, Macaca fascicularis. Also noted: dose 30 uL, route ophthalmic.
Data set [23] is described as follows: Cmax in retina of Brown Norway rat administered 0.3% suspension using 4 uL topical drop to both eyes as single dose by LC-MS/MS analysis. In kind it is ADME, tissue-based. On the set-up: dose 4 uL, route ophthalmic. The conditions noted are these: topical or ocular, 4 uL of 0.3% suspension per eye.
Data set [24] can be described thus: Solubility of compound at pH 7.4. In kind it is physicochemical. The settings on record: buffer.
Data set [25] deals with Cynomolgus monkey. The experiment in a line: Toxicity in cynomolgus monkey adnexa region of eye administered 0.5% suspension using 30 uL topical drop to both eyes every 3 hrs for 9 hrs over 5 days by slit lamp biomicroscopic method. Also noted: species or system Macaca fascicularis. The settings on record: in vivo, topical_or_ocular.
The subject of data set [26] is Cynomolgus monkey. Kind of data set: Toxicity in cynomolgus monkey anterior region of eye administered 0.5% suspension using 30 uL topical drop to both eyes every 3 hrs for 9 hrs over 5 days by slit lamp biomicroscopic method. The conditions noted are these: in vivo, topical_or_ocular. Also noted: species or system Macaca fascicularis.
Data set [27] is described as follows: AUC (0 to last) in plasma of Brown Norway rat administered 0.3% suspension using 4 uL topical drop to both eyes every 3 hrs for 9 hrs over 10 days and single drop to each eye on day 11 by LC-MS/MS analysis. The conditions noted are these: topical or ocular, 4 uL of 0.3% suspension per eye. Type of data set: ADME.
In data set [28] the test system is Rattus norvegicus. The experiment in a line: Antiangiogenic activity in Brown Norway rat laser-induced choroidal neovascularization model assessed as inhibition of neovascularization administered 0.1% solution to both eyes every 3 hrs for 9 hrs by microscopic analysis. In kind it is functional.
The test system of data set [29] is Cynomolgus monkey. Kind of data set: Toxicity in cynomolgus monkey ocular fundus administered 0.5% suspension using 30 uL topical drop to both eyes every 3 hrs for 9 hrs over 5 days by indirect ophthalmoscopic method. Also noted: species or system Macaca fascicularis. The settings on record: in vivo, topical_or_ocular.
The subject of data set [30] is Rattus norvegicus. The experiment in a line: Antiangiogenic activity in Brown Norway rat laser-induced choroidal neovascularization model assessed as inhibition of neovascularization administered 0.09% suspension using 4 uL topical drop to both eyes every 3 hrs for 9 hrs by microscopic analysis. In kind it is functional.
Data set [31] can be described thus: AUC (0 to last) in retina of Brown Norway rat administered 0.3% suspension using 4 uL topical drop to both eyes as single dose by LC-MS/MS analysis. Also noted: dose 4 uL, time 0 - last, route ophthalmic. The conditions noted are these: topical or ocular, 4 uL of 0.3% suspension per eye. In kind it is ADME, tissue-based.
Data set [32] concerns the target Tyrosine-protein kinase ABL1 (Homo sapiens, UniProt P00519). Kind of data set: Inhibition of human ABL.
Data set [33] in a line: Cmax in cynomolgus monkey plasma administered 0.5% suspension using 30 uL topical drop to both eyes every 3 hrs for 9 hrs over 5 days and single drop to each eye on day 6 by LC-MS/MS analysis. In kind it is ADME, Macaca fascicularis. The settings on record: topical or ocular, 30 uL of 0.5% suspension per eye.
Data set [34] deals with Proto-oncogene tyrosine-protein kinase receptor Ret (Homo sapiens, UniProt P07949). Kind of data set: Inhibition of human RET.
Proto-oncogene tyrosine-protein kinase receptor Ret, sequence (P07949 whole entry): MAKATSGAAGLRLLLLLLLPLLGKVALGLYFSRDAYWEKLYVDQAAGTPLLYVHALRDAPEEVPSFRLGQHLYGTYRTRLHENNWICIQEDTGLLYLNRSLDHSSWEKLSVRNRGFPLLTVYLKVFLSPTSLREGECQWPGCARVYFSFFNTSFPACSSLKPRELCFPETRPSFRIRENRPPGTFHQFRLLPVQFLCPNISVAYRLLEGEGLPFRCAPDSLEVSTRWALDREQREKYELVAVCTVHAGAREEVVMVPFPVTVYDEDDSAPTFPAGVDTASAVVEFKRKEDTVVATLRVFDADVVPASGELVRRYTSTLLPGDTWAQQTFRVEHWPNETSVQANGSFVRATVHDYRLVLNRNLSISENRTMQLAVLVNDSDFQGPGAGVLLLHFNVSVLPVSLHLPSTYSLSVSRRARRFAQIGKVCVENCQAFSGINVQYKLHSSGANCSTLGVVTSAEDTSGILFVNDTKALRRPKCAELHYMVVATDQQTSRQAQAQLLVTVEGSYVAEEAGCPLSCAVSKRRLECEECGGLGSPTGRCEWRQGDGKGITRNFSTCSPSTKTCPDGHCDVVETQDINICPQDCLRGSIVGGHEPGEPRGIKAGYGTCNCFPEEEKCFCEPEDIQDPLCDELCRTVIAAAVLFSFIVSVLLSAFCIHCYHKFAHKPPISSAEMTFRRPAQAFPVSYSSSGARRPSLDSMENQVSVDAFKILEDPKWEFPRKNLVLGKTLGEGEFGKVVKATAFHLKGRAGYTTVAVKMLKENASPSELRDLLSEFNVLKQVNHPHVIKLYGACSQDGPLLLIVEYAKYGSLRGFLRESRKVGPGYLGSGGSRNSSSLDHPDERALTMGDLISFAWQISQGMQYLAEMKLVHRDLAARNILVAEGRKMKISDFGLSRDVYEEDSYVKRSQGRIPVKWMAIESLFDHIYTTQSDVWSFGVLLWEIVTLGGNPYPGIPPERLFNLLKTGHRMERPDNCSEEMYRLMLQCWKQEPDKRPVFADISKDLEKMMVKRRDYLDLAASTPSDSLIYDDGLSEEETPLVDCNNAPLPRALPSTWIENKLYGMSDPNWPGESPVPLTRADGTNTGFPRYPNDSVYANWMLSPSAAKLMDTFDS
Data set [35] is described as follows: Intrinsic clearance in rat liver microsomes at 1 uM after 5 to 30 mins by LC-MS/MS analysis. Type of data set: ADME, microsome. The conditions noted are these: read-out: CLH.

Values after ≈ are worked out from the molar mass of the structure shown. Active and inactive are the calls of the source. No cut-off for these calls is given here.

Mast/stem cell growth factor receptor Kit, sequence (P10721 whole entry): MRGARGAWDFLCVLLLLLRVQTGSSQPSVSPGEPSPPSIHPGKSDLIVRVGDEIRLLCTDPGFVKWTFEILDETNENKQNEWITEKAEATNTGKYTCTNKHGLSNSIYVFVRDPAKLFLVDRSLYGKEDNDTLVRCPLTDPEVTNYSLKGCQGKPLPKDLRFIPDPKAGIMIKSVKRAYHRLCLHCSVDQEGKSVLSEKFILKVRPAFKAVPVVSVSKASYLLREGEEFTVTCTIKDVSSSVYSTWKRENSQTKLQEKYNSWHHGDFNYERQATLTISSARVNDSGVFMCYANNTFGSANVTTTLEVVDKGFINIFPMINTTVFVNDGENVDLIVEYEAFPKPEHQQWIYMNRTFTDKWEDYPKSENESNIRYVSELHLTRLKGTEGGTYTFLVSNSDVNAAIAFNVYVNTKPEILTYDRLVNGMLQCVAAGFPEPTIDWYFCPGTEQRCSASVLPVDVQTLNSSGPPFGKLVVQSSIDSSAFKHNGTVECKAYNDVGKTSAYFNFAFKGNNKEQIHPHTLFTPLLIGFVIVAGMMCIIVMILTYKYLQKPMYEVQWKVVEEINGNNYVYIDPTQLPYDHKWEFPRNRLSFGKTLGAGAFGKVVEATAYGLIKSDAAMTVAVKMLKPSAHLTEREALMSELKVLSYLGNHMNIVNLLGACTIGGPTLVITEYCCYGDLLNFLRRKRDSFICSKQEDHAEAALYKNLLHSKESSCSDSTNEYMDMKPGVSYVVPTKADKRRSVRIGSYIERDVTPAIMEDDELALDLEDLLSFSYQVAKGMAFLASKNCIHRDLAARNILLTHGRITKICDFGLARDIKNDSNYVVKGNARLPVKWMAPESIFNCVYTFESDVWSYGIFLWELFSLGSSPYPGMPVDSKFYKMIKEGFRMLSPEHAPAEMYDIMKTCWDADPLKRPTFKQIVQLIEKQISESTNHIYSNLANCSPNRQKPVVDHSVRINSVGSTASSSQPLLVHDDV
Tyrosine-protein kinase ABL1, sequence (P00519 whole entry): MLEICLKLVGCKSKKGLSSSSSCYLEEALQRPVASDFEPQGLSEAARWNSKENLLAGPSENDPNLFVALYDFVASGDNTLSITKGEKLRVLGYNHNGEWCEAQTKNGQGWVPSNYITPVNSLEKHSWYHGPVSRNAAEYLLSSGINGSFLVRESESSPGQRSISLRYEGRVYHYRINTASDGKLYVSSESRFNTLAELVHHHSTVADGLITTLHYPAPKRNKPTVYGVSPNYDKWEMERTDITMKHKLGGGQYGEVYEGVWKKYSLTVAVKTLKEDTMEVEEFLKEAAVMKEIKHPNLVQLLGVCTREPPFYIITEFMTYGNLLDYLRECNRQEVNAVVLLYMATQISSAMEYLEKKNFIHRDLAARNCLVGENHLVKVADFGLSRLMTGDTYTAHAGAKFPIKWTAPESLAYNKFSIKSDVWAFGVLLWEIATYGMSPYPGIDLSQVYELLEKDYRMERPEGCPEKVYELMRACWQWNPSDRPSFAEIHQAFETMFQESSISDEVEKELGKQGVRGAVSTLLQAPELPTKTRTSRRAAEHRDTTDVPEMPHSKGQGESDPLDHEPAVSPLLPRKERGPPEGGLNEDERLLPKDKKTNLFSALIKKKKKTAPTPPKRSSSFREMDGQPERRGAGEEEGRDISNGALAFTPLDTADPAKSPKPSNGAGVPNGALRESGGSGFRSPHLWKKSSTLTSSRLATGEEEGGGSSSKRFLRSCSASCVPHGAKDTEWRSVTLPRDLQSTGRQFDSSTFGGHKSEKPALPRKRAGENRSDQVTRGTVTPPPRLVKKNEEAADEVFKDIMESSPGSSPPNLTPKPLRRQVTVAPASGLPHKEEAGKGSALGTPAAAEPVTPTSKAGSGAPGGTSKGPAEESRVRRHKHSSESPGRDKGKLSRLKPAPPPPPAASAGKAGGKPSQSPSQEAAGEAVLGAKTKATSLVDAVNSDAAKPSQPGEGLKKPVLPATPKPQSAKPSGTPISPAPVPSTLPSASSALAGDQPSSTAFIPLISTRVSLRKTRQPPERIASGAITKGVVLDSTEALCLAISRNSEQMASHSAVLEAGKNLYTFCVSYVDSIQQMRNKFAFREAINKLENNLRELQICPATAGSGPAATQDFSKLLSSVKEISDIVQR
Tyrosine-protein kinase Lyn, sequence (P07948 whole entry): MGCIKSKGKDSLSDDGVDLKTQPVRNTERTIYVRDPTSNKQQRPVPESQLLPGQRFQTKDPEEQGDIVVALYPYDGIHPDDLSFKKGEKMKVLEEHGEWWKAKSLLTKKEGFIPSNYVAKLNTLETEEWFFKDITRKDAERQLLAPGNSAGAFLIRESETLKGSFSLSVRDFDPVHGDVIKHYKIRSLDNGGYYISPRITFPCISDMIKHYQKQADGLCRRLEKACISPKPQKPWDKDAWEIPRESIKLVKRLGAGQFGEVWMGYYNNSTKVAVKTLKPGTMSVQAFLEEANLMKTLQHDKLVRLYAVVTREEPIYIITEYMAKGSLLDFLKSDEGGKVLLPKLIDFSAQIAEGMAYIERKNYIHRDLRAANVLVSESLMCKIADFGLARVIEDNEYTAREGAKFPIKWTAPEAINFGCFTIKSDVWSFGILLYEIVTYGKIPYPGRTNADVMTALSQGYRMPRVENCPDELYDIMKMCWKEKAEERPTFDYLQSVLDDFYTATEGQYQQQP

Consider `O=C(Nc1cc(C2(CO)CC2)on1)n1ccc2cc(Oc3ncnc4c3CNC4)ccc21`, for which the inhibition entry in data set [1] is “inactive”.
`CC(=O)N1Cc2ncnc(Oc3ccc4c(ccn4C(=O)Nc4cc(C5CC5)on4)c3)c2C1`: the inhibition result in data set [2] was “inactive”.
Turning to `Nc1nccc(Oc2ccc3c(C(=O)Nc4cccc(C(F)(F)F)c4)cccc3c2)n1`, in data set [2], the inhibition entry is “inactive”. Further, the IC50 in data set [3] was determined as 1.7 nM.
Take `CC(=O)N1Cc2ncnc(Oc3ccc4c(ccn4C(=O)Nc4cc(C5CC5)on4)c3)c2C[C@@H]1C`: the IC50 in data set [4], in [8], in data set [9], in data set [32] and in [34] was less than 500 nM each time. Besides, the Cmax is 138 nM in [5]; 2860 nM in [6]; 78.6 nM in data set [7]; 51.6 nM in data set [16]; 4730 nM in data set [20]; 65.8 nM in [22]. Further, the Cmax worked out at 150 nM in data set [23] and 228 nM in data set [33]. Also, the AUC(0-t) amounted to 0.764 µM·h in data set [10]; 2.51 µM·h in data set [12]; 8.97 µM·h in [15]; 0.449 µM·h in data set [18]; 1.07 µM·h in [19]; 29.5 µM·h in [21]. Moreover, the values for the AUC(0-t) in [27] and in data set [31] were 0.923 µM·h and 0.22 µM·h, respectively. The same compound yielded a concentration at 24 h in data set [11] of 64 nM. In addition, the Tmax is 3 h in data set [13] and 11 h in data set [14]. In data set [17], this compound showed a concentration of 84.4 nM. In data set [24], this compound had a solubility of 0.6 µM (≈ 0.284 µg/mL). Further, the Activity entry in [25], in data set [26] and in [29] was “Non-Toxic” throughout. The “inhibition (INH)” value in data set [28] turned out to be 55%; in [30] it was 50%.
Turning to `CC(C)(CO)c1cc(NC(=O)n2ccc3cc(Oc4ncnc5c4CNC5)ccc32)no1`, in data set [1], the inhibition entry was “inactive”.
In the case of `O=C(Nc1cc(C2CCOCC2)on1)n1ccc2cc(Oc3ncnc4c3CNC4)ccc21`, in [1], the inhibition result was “inactive”.
As to `CNCc1cc(Oc2ccc3c(ccn3C(=O)Nc3cc(C(C)C)on3)c2)ncn1`, the microsomal CLint at 1 µM in [35] was 114 µL/min/mg.
